This passage reports pIC50 results from the supplement of paper PMC12076712.

Common to all, as to test: pIC50, kinobeads binding competition
In assay [1] the target is MELK (UniProt Q14680). The essentials:
(§1)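 Nine compound concentrations were tested, starting at 30 μM in 1:4 steps on live Jurkat cells (60 min, 37 °C, then lysis) or in 1:5 steps on Jurkat lysate or a 1:1:1:1 HEK293/K-562/HepG2/placenta lysate mix (60 min, 4 °C). Kinobeads-bound proteins were digested and quantified with TMT10 LC-MS/MS. pIC50 values are from logistic dose-response fits in the R drc package of fold changes relative to vehicle, from biological duplicates.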

In assay [2] the target is T1, DDR2 (UniProt Q16832).
T1 sequence (whole entry): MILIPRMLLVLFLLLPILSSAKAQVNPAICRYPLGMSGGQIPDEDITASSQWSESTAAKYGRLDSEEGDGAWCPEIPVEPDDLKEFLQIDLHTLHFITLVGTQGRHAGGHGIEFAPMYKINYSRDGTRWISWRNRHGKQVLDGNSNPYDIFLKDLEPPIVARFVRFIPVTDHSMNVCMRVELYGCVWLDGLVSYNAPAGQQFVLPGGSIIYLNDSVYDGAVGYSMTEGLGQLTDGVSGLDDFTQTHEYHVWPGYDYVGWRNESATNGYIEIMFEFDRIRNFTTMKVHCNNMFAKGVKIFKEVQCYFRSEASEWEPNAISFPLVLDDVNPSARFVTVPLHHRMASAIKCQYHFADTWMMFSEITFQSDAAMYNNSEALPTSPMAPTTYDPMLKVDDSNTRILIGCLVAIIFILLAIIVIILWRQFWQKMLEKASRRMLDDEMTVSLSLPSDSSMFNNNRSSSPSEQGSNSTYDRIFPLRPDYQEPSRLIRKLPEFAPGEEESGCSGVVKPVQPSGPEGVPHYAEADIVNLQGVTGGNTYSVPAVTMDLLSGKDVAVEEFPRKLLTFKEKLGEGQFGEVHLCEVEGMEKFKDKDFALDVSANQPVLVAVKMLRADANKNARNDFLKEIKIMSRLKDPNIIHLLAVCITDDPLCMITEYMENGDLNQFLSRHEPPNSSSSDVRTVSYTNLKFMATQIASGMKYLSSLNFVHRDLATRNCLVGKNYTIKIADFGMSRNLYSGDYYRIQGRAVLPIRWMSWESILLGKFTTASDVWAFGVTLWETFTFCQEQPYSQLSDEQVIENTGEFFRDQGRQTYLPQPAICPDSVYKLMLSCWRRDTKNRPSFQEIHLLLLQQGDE
The settings on record: cell material: Lysate mix. The essentials:
as §1

Assay [3] has as its target ACVR2A (UniProt P27037). As to conditions: cell material: Lysate mix. The essentials:
as §1

For assay [4], the target named is ACVR2B (UniProt Q13705). The essentials:
as §1

For assay [5], the target named is PIM3 (UniProt Q86V86). In outline:
as §1

In assay [6] the target is T2, GAK (UniProt O14976).
T2 sequence (whole entry): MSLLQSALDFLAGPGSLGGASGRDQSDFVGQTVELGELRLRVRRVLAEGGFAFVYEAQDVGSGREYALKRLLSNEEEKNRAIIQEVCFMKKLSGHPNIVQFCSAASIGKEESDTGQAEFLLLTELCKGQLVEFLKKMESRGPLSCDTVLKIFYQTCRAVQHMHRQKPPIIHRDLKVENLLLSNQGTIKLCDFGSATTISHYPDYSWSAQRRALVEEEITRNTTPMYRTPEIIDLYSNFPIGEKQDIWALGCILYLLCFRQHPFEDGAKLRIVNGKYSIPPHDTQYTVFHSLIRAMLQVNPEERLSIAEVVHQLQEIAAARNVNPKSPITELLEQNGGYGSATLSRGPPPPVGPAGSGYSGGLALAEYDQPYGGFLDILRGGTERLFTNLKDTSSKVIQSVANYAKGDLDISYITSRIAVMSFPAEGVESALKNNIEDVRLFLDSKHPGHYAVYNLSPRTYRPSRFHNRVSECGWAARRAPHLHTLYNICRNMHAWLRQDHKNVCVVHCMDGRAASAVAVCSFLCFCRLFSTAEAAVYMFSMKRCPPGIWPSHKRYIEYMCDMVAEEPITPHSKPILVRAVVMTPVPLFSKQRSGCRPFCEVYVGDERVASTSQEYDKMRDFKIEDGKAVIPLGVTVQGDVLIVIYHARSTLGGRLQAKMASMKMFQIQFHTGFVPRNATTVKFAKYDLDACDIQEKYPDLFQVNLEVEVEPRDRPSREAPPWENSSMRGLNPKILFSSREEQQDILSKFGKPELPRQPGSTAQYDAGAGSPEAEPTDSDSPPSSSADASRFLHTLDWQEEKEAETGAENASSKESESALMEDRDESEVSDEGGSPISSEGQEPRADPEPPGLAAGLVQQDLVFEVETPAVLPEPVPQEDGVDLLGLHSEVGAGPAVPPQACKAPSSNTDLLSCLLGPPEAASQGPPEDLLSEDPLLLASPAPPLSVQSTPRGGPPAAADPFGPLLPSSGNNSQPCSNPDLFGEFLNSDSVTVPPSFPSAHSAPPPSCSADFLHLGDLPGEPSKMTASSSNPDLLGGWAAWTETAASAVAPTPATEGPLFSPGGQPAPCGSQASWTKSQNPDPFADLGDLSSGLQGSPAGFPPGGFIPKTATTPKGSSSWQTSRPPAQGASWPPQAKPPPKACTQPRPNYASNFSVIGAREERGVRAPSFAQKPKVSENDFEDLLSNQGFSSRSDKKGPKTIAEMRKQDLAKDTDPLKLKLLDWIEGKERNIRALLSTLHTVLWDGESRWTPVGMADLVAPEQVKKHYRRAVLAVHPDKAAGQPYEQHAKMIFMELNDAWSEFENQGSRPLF
The essentials: as §1

Assay [7] has as its target TYK2 (UniProt P29597). The essentials:
as §1

Structures are written as SMILES.

ACVR2A, sequence (P27037 whole entry): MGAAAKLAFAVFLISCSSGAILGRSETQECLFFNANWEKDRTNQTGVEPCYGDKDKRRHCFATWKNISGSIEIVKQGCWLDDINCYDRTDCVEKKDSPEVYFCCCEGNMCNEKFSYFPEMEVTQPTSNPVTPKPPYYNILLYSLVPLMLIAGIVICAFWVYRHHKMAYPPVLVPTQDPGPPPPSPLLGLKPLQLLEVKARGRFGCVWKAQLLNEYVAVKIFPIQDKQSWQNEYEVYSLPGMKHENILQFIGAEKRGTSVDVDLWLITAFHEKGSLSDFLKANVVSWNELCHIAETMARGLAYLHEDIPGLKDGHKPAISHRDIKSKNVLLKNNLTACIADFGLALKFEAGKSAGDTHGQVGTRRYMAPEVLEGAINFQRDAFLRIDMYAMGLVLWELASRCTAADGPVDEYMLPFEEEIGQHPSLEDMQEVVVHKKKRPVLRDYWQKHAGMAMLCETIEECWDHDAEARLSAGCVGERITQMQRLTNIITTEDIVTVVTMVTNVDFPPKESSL
TYK2, sequence (P29597 whole entry): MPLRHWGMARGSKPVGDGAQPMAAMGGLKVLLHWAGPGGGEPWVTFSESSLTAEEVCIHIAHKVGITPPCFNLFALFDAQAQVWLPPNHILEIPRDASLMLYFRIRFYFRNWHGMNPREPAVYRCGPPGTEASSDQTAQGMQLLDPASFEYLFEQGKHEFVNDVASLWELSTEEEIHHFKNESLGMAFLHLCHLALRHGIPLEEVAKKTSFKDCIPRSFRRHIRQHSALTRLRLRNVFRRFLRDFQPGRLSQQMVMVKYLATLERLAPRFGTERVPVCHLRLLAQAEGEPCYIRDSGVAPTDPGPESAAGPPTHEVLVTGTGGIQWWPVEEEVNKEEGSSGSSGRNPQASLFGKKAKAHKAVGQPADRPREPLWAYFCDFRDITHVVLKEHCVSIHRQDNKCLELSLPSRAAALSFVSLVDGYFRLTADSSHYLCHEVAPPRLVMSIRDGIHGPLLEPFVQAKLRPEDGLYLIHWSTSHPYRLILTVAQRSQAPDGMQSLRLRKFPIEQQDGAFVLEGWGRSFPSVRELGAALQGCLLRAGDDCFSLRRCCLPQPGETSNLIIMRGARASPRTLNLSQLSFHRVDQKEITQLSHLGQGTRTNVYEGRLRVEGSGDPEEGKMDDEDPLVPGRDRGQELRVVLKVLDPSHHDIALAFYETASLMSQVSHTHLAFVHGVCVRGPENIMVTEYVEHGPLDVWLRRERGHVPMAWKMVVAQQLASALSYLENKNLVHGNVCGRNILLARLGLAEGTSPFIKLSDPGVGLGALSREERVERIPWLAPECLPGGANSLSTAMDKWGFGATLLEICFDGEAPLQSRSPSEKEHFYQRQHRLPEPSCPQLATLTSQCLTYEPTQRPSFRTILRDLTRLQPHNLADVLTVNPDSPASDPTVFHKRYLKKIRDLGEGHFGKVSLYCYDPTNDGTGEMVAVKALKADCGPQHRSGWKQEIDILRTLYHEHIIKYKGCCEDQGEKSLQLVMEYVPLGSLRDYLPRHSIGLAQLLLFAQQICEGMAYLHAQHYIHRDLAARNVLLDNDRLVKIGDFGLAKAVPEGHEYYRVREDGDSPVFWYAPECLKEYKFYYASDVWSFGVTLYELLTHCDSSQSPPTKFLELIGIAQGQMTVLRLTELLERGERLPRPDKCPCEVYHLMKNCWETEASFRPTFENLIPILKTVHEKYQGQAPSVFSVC
ACVR2B, sequence (Q13705 whole entry): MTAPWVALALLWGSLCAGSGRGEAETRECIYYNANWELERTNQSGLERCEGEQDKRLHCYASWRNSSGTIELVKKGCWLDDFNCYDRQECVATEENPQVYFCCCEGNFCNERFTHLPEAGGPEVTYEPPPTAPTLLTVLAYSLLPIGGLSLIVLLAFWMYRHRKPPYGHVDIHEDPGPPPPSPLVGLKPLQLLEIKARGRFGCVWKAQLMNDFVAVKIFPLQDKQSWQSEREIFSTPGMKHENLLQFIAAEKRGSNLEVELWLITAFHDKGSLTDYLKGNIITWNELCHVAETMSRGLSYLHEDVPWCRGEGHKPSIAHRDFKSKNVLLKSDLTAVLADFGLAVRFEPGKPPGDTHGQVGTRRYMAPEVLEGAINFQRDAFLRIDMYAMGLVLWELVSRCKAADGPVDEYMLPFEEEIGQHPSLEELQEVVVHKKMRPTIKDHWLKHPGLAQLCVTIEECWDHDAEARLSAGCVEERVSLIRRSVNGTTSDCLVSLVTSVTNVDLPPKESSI
MELK, sequence (Q14680 whole entry, looked up): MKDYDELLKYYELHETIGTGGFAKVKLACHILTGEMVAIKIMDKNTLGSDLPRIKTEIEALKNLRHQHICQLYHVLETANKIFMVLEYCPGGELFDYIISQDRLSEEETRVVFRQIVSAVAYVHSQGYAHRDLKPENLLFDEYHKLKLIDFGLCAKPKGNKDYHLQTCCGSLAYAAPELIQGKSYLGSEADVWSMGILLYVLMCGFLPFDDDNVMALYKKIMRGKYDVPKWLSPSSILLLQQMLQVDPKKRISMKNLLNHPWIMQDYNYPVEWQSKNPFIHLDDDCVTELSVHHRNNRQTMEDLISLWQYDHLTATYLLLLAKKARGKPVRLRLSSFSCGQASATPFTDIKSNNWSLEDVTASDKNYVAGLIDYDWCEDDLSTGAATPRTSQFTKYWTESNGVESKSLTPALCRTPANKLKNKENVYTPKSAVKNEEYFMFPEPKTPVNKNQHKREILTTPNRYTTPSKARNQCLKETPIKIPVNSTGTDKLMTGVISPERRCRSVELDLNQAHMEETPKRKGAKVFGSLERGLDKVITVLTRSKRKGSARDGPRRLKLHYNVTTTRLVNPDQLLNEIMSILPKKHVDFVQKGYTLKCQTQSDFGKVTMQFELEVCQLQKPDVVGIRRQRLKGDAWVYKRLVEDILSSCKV

What is called pIC50 is the negative decadic logarithm of the IC50, by convention in mol/L. A high value points to a small IC50. Take `Cc1cc(Nc2cc(C(=O)NCCNC(=O)OC3CC/C=C/CCC3)nc(N3CCN(Cc4ccc(S(=O)(=O)F)cc4)CC3)n2)n[nH]1` (stereo not given): the pIC50 in assay [1] (cell material: Lysate mix), in assay [2], in assay [3], in assay [4] (cell material: Lysate mix), in assay [5] (cell material: Lysate mix) and in assay [6] (cell material: Lysate mix) was less than 4.52 throughout. This compound also returned a pIC50 in assay [7] (cell material: Lysate mix) of less than 4.52.

As to `C#CCNC(=O)c1cc(Nc2cc(C3CC3)[nH]n2)nc(N2CCN(Cc3ccc(S(=O)(=O)F)cc3)CC2)n1`, the pIC50 in assay [1] (cell material: Jurkat cells), in assay [1] (cell material: Jurkat lysate), in assay [1] (cell material: Lysate mix), in assay [2], in assay [3] and in assay [4] (cell material: Jurkat lysate) was less than 4.52 in each case. In addition, the pIC50 in assay [4] (cell material: Lysate mix), in assay [5] (cell material: Jurkat lysate), in assay [5] (cell material: Lysate mix), in assay [6] (cell material: Jurkat cells), in assay [6] (cell material: Jurkat lysate) and in assay [6] (cell material: Lysate mix) was less than 4.52 each time. Further, the pIC50 in assay [7] (cell material: Jurkat cells), in assay [7] (cell material: Jurkat lysate) and in assay [7] (cell material: Lysate mix) was less than 4.52 each time.

For the compound `CCNC(=O)c1cc(Nc2cc(C3CC3)[nH]n2)nc(N2CCN(Cc3ccc(S(=O)(=O)F)cc3)CC2)n1`, the pIC50 was less than 4.52 in assay [1] (cell material: Lysate mix); 4.57 in assay [2]; less than 4.52 in assay [3]; less than 4.52 in assay [4] (cell material: Lysate mix); less than 4.52 in assay [5] (cell material: Lysate mix); less than 4.52 in assay [6] (cell material: Lysate mix). Besides, in assay [7] (cell material: Lysate mix), the pIC50 is less than 4.52.

In the case of `C#CCNC(=O)c1cc(Nc2cc(C)[nH]n2)nc(N2CCN(Cc3ccc(S(=O)(=O)F)cc3)CC2)n1`, the pIC50 in assay [1] (cell material: Lysate mix), in assay [2], in assay [3], in assay [4] (cell material: Lysate mix), in assay [5] (cell material: Lysate mix) and in assay [6] (cell material: Lysate mix) was less than 4.52 in each case. In assay [7] (cell material: Lysate mix), the pIC50 is less than 4.52.

Take `O=C(NCCNC(=O)c1cc(Nc2cc(C3CC3)[nH]n2)nc(N2CCN(Cc3ccc(S(=O)(=O)F)cc3)CC2)n1)OC1CC/C=C/CCC1` (stereo not given): the pIC50 in assay [1] (cell material: Jurkat cells), in assay [1] (cell material: Jurkat lysate), in assay [1] (cell material: Lysate mix), in assay [2], in assay [3] and in assay [4] (cell material: Jurkat cells) was less than 4.52 each time. Besides, the pIC50 is less than 4.52 in assay [4] (cell material: Jurkat lysate); less than 4.52 in assay [4] (cell material: Lysate mix); 5.49 in assay [5] (cell material: Jurkat cells); less than 4.52 in assay [5] (cell material: Jurkat lysate); less than 4.52 in assay [5] (cell material: Lysate mix); less than 4.52 in assay [6] (cell material: Jurkat cells). Moreover, the pIC50 in assay [6] (cell material: Jurkat lysate), in assay [6] (cell material: Lysate mix), in assay [7] (cell material: Jurkat cells), in assay [7] (cell material: Jurkat lysate) and in assay [7] (cell material: Lysate mix) was less than 4.52 each time.

With `CCNC(=O)c1cc(Nc2cc(C)[nH]n2)nc(N2CCN(Cc3ccc(S(=O)(=O)F)cc3)CC2)n1`, the pIC50 in assay [1] (cell material: Lysate mix), in assay [2], in assay [3], in assay [4] (cell material: Lysate mix), in assay [5] (cell material: Lysate mix) and in assay [6] (cell material: Lysate mix) was less than 4.52 in each case. For the same compound, in assay [7] (cell material: Lysate mix), the pIC50 is less than 4.52.
